Test: xn = mol fraction of the nth substance listed
Conditions: 101 kPa, Liquid, Vibrating tube method

ClCCCCCl [1,4-dichlorobutane] + O=C1CCCCC1
mass density [kg/m3]
Conditions	x1 = 0.1063	x1 = 0.1969	x1 = 0.2901	x1 = 0.3808	x1 = 0.4803	x1 = 0.5814	x1 = 0.6763	x1 = 0.7751	x1 = 0.8849	x1 = 1
288.15 K	973.11	991.09	1009.39	1027.04	1046.24	1065.55	1083.46	1101.96	1122.33	1143.49
298.15 K	964	981.82	999.94	1017.42	1036.41	1055.52	1073.23	1091.52	1111.66	1132.57
308.15 K	954.86	972.51	990.46	1007.76	1026.55	1045.46	1062.97	1081.05	1100.96	1121.61
318.15 K	945.69	963.17	980.95	998.07	1016.66	1035.37	1052.68	1070.54	1090.21	1110.61

CCCCCl [1-chlorobutane] + O=C1CCCCC1
mass density [kg/m3]
Conditions	x1 = 0.1152	x1 = 0.2084	x1 = 0.3068	x1 = 0.4067	x1 = 0.5041	x1 = 0.5841	x1 = 0.692	x1 = 0.7881	x1 = 0.882	x1 = 1
288.15 K	945.58	940.43	934.95	929.27	923.6	918.86	912.28	906.18	900.11	892.1
298.15 K	936.47	931.18	925.51	919.65	913.78	908.86	902.02	895.71	889.37	881.05
308.15 K	927.34	921.88	916.03	909.97	903.89	898.78	891.68	885.12	878.54	869.86
318.15 K	918.17	912.54	906.5	900.22	893.92	888.63	881.25	874.42	867.57	858.52

O=C1CCCCC1 [cyclohexanone] + CC(Cl)(Cl)Cl
x2 = 0
Conditions	mass density [kg/m3]
288.15 K	951.69
298.15 K	942.76
308.15 K	933.8
318.15 K	924.82

O=C1CCCCC1 [cyclohexanone] + CCCCCl
x2 = 0
Conditions	mass density [kg/m3]
288.15 K	951.69
298.15 K	942.76
308.15 K	933.8
318.15 K	924.82

O=C1CCCCC1 [cyclohexanone] + ClC(Cl)C(Cl)Cl
x2 = 0
Conditions	mass density [kg/m3]
288.15 K	951.69
298.15 K	942.76
308.15 K	933.8
318.15 K	924.82

O=C1CCCCC1 [cyclohexanone] + ClC(Cl)Cl
x2 = 0
Conditions	mass density [kg/m3]
288.15 K	951.69
298.15 K	942.76
308.15 K	933.8
318.15 K	924.82

O=C1CCCCC1 [cyclohexanone] + ClCCCCCl
x2 = 0
Conditions	mass density [kg/m3]
288.15 K	951.69
298.15 K	942.76
308.15 K	933.8
318.15 K	924.82

O=C1CCCCC1 [cyclohexanone] + ClCCCCl
x2 = 0
Conditions	mass density [kg/m3]
288.15 K	951.69
298.15 K	942.76
308.15 K	933.8
318.15 K	924.82

O=C1CCCCC1 [cyclohexanone] + ClCCCl
x2 = 0
Conditions	mass density [kg/m3]
288.15 K	951.69
298.15 K	942.76
308.15 K	933.8
318.15 K	924.82

ClC(Cl)Cl [trichloromethane] + O=C1CCCCC1
mass density [kg/m3]
Conditions	x1 = 0.1198	x1 = 0.2362	x1 = 0.305	x1 = 0.4235	x1 = 0.5103	x1 = 0.6047	x1 = 0.6953	x1 = 0.8109	x1 = 0.9089	x1 = 1
288.15 K	1004.15	1058.19	1091.64	1151.88	1198.22	1250.45	1303.06	1372.1	1433.35	1491.86
298.15 K	994.58	1047.93	1080.94	1140.29	1185.89	1237.16	1288.8	1356.3	1416.12	1473.16
308.15 K	984.97	1037.61	1070.16	1128.62	1173.48	1223.78	1274.42	1340.36	1398.68	1454.07
318.15 K	975.32	1027.25	1059.32	1116.88	1160.97	1210.28	1259.9	1324.23	1381.01	1434.72

Source: the NIST ThermoML archive (doi:10.1021/je900404r)
